{"source": "patent US20240207265A1", "about": "“TREATMENT OF CNS DISEASES WITH sGC STIMULATORS” (Tisento Therapeutics Inc., priority 2021, published 2024)", "key": {"[1]": {"system": "sGC enzyme", "experiment": "cGMP GloSensor cell-based assay, 384-well format (HEK293)", "design": "species or system human", "details": "HEK293 GloSensor 40F cGMP cells, 10 μM DETA-NONOate, geometrical mean; read-out: Glo EC50", "text": "Human embryonic kidney cells (HEK293) cells expressing GloSensor™ 40F cGMP (Part No: CS182801, Promega) were used to evaluate the activity of test compounds. The luminescent biosensors (engineered luciferase) that were incorporated into these cells detect cGMP formed by the compounds stimulating the sGC enzyme and emit luminescence.\ncGMP GloSensor cells were maintained in Dulbecco's Modification of Eagle's Medium (DMEM) supplemented with fetal bovine serum (FBS, 10% final) and hygromycine (200 ug/ml). The day before assay, cells were plated in DMEM with 10% FBS in a 50 μL volume at a density of 1.5×10^4 cells/well in a poly-D-lysine coated 384-well flat white-bottom plate (Corning Cat No 35661). Cells were incubated overnight at 37° C. in a humidified chamber with 5% CO2. The next day, medium was removed and cells were replaced with 40 ul/well of GloSensor™, 2 mM (Promega Cat No E1291). Cells were treated for 90 minutes at 25° C. to allow the substrate to equilibrate in the cells. Test compounds and Diethylenetriamine NONOate (DETA-NONOate) was diluted to 3 mM (20×) in serum-free CO2 independent medium and serially diluted at 4× dilutions to create 5× dose curve from which 10 ul was added to the wells (x μM concentration for test compound solution and 10 μM concentration for DETA-NONOate solution; wherein x is one of the following final concentrations: 30 μM, 7.5 μM, 1.9 μM, 469 nM, 117 nM, 29.3 nM, 7.3 nM, 1.83 nM, 0.46 nM, 0.11 nM, 0.03 nM) For the kinetics studies, luminescense was measured right away for 0.2 sec per well with Envision (Perkin Elmer). For endpoint SAR screening, data were collected after 55 min incubation at room temperature.\n(§1) Concentration response data were analyzed using a 4-parameter fit (log (agonist) vs. response-variable slope). The EC50 was interpolated from the curve fit and is defined as the concentration at which the compound elicits 50% of its maximal response. When the experiment was carried out multiple times for a given compound, the geometrical mean of all experiments is reported."}, "[2]": {"experiment": "Rat cerebrospinal fluid (CSF) pharmacokinetics", "format": "in vivo", "details": "male, Sprague-Dawley; rat CSF/unbound plasma, PO 3 mg/kg", "experimental": "PK in rats was determined following oral dosing. For the oral (PO) experiments, a group of 6 male Sprague-Dawley rats with an indwelling catheter placed in the cisterna magna were used. The PO group was dosed with 3.0, or 10 mg/kg of a compound formulated as a solution in PEG400 or suspension in 0.5% Tween 80 and 0.5% Methylcellulose in water. PO doses were administered by oral gavage and delivered to the stomach using a syringe and gavage tube. Following oral dosage administration, the gavage tube was flushed with approximately 0.5 mL of water to ensure complete delivery of the full dose.\nPlasma samples were collected as follows: samples of CSF and blood were collected at 1 hour, 2, and optionally at 4 hours post-dosing. CSF samples (0.05 mL) were collected through the intracisternal catheter. Blood samples (0.25 mL) were collected through tail nick sampling. These samples were kept on ice until processed for plasma. Blood samples were centrifuged at 3200 rpm for 5 minutes at approximately 5° C. within 1 hour of collection. Plasma was directly transferred to individual Eppendorf tubes (0.125 mL). Plug caps were placed on the tubes and the tubes frozen at approximately −70° C. and stored until analysis. Plasma and CSF was collected and analyzed for the presence of a compound.\nThe compound in question and the internal standard were extracted from plasma by precipitation and from CSF by either precipitation or dilution. Samples were analyzed using liquid chromatography (LC) with tandem mass spectrometric detection (MS/MS) using electrospray ionization. The standard curve ranged from 0.1 to 1000 ng/mL. Results of the compounds described herein in this assay are illustrated in Table G below (for a 10 mg/kg dose and/or 3 mg/kg of the compound). Compound concentrations from several animals were combined to give the geometrical mean at each specific dosage and timepoint.\nKp,uu is defined as the concentration ratio of unbound drug in CSF to unbound drug in plasma. Unbound drug in plasma (or free plasma concentration) is calculated by multiplying the total plasma concentration by the unbound fraction as determined by plasma protein binding. The CSF concentration is then divided by the free plasma concentration to determine the Kp,uu. (See e.g., Di et al., J. Med. Chem., 56, 2-12 (2013))"}, "[3]": {"system": "sGC", "experiment": "cGMP neuronal cell-based assay (rat primary neurons)", "details": "rat primary hippocampal neurons, DETA-NO 10 μM or 30 μM, cGMP by LC-MS/MS; read-out: sGC Neuron EC50", "experimental": "Rat primary neurons were isolated from fetuses of 18-day pregnant Sprague-Dawley females. The fetuses were collected in Hanks' balanced salt solution (HBSS) and brains were rapidly removed. The cerebral hippocampi were isolated and mechanically fragmented. Further tissue digestion was performed with 0.25% (wt/vol) trypsin solution in HBSS without Ca2+ and Mg2+ for 15 min at 37° C. After trypsination, cells were washed and resuspended in neurobasal medium supplemented with 0.5 mM L-glutamine, 12.5 uM glutamic acid, 2% B-27 and 100 U/mL penicillin, and 100 μg/mL streptomycin. Cells were plated at a density of 26×10^3 or 3×10^4 or 4×10^4 cells/well in a poly-D-lysine coated 384-well flat clear-bottom plate (Corning Cat No 354662). Cells were incubated 6-7 days at 37° C. in a humidified chamber with 5% CO2. Media was removed and cells were washed 1× with HBSS containing Ca2+ and Mg2+, and replaced with 40 uL HBSS containing 0.5 mM IBMX, and incubated for 15 minutes at 37° C. 10 uL of a 5× stock of test compounds with diethylenetriamine NONOate (DETA-NO) was added. Final concentration of DETA-NO was either 10 μM or 30 μM. Cells were incubated for 20 min at 37° C. Medium was removed, 50 uL of ice-cold 10% acetic acid was added, and incubated for 60 minutes at 4° C. Following centrifugation at 4° C. for 5 minutes at 1000×g to pellet cell debris, the supernatant was aspirated to a clean plate and the samples were analyzed for cGMP content. cGMP concentrations were determined from each sample using LC-MS/MS.\nas §1"}}}
{"smiles": "Oc1nc(-c2cn3ccnc3c(Cc3cccc(F)c3)n2)ncc1F", "note": "[Compound I-1, 5-fluoro-2-(8-(3-fluorobenzyl)imidazo[1,2-a]pyrazin-6-yl)pyrimidin-4-ol]", "values": [{"measurement": "EC50", "setting": "[1]", "value": "100 to 1000", "unit": "nM"}, {"measurement": "Kp uu at 1 h", "setting": "[2]", "value": "≤ 1"}, {"measurement": "Kp uu at 2 h", "setting": "[2]", "value": "1 to 2"}, {"measurement": "Kp uu at 4 h", "setting": "[2]", "value": "≤ 1"}, {"measurement": "EC50", "setting": "[3]", "value": "100 to 1000", "unit": "nM"}]}
{"smiles": "Cc1c(F)cc(Cc2nc(-c3ncc(F)c(O)n3)cn3ccnc23)cc1F", "note": "[Compound I-3, 5-Fluoro-2-(8-(3,5-difluoro-4-methylbenzyl)imidazo[1,2-a]pyrazin-6-yl)pyrimidin-4-ol]", "values": [{"measurement": "EC50", "setting": "[1]", "value": "≤ 100", "unit": "nM"}, {"measurement": "EC50", "setting": "[3]", "value": "≤ 100", "unit": "nM"}]}
{"smiles": "Cc1ccc(Cc2nc(-c3ncc(F)c(O)n3)cn3ccnc23)cc1F", "note": "[Compound I-6, 5-Fluoro-2-(8-(3-fluoro-4-methylbenzyl)imidazo[1,2-a]pyrazin-6-yl)pyrimidin-4-ol]", "values": [{"measurement": "EC50", "setting": "[1]", "value": "≤ 100", "unit": "nM"}, {"measurement": "EC50", "setting": "[3]", "value": "≤ 100", "unit": "nM"}]}
{"smiles": "Oc1nc(-c2cn3ccnc3c(Cc3cc(F)cc(F)c3)n2)ncc1F", "note": "[Compound I-7, 2-(8-(3,5-Difluorobenzyl)imidazo[1,2-a]pyrazin-6-yl)-5-fluoropyrimidin-4-ol]", "values": [{"measurement": "EC50", "setting": "[1]", "value": "100 to 1000", "unit": "nM"}, {"measurement": "EC50", "setting": "[3]", "value": "≤ 100", "unit": "nM"}]}
{"smiles": "Cc1cnc(-c2cn3ccnc3c(Cc3ccccc3F)n2)nc1O", "note": "[Compound I-8, 2-(8-(2-fluorobenzyl)imidazo[1,2-a]pyrazin-6-yl)-5-methylpyrimidin-4-ol]", "values": [{"measurement": "EC50", "setting": "[1]", "value": "> 1000", "unit": "nM"}]}
{"smiles": "Oc1nc(-c2cn3c(F)cnc3c(Cc3ccccc3F)n2)ncc1F", "note": "[Compound I-9]", "values": [{"measurement": "EC50", "setting": "[1]", "value": "100 to 1000", "unit": "nM"}, {"measurement": "EC50", "setting": "[3]", "value": "≤ 100", "unit": "nM"}]}
{"smiles": "Oc1nc(-c2cn3ncnc3c(Cc3cccc(F)c3F)n2)ncc1F", "note": "[Compound I-10, 2-(8-(2,3-Difluorobenzyl)-[1,2,4]triazolo[1,5-a]pyrazin-6-yl)-5-fluoropyrimidin-4-ol]", "values": [{"measurement": "EC50", "setting": "[1]", "value": "100 to 1000", "unit": "nM"}]}
{"smiles": "Oc1nc(-c2cn3ncnc3c(Cc3cccc(F)c3)n2)ncc1F", "note": "[Compound I-11, 5-Fluoro-2-(8-(3-fluorobenzyl)-[1,2,4]triazolo[1,5-a]pyrazin-6-yl)pyrimidin-4-ol]", "values": [{"measurement": "EC50", "setting": "[1]", "value": "100 to 1000", "unit": "nM"}]}
{"smiles": "Oc1nc(-c2cn3ncnc3c(Cc3cc(F)ccc3F)n2)ncc1F", "note": "[Compound I-12, 2-(8-(2,5-Difluorobenzyl)-[1,2,4]triazolo[1,5-a]pyrazin-6-yl)-5-fluoropyrimidin-4-ol]", "values": [{"measurement": "EC50", "setting": "[1]", "value": "100 to 1000", "unit": "nM"}, {"measurement": "EC50", "setting": "[3]", "value": "≤ 100", "unit": "nM"}]}
{"smiles": "Oc1nc(-c2cn3ncnc3c(Cc3cc(F)cc(F)c3)n2)ncc1F", "note": "[Compound I-13, 2-(8-(3,5-Difluorobenzyl)-[1,2,4]triazolo[1,5-a]pyrazin-6-yl)-5-fluoropyrimidin-4-ol]", "values": [{"measurement": "EC50", "setting": "[1]", "value": "100 to 1000", "unit": "nM"}]}
